The values below come from ChEMBL document CHEMBL1158305, “Bastadin 20 and bastadin O-sulfate esters from Ianthella basta: novel modulators of the Ry1R FKBP12 receptor complex” (J Nat Prod, 1996).

In the experiment the target is Ryanodine receptor 1 (Oryctolagus cuniculus, UniProt P11716). The experiment in a line: Displacement of [3H]ryanodine from Ry1R/FKBP12 receptor complex in rabbit sarcoplasmic reticulum. Background: Loss of bound radioactivity is the signal in a displacement assay; it reports binding, not function.
Sequence of Ryanodine receptor 1 (P11716 whole entry): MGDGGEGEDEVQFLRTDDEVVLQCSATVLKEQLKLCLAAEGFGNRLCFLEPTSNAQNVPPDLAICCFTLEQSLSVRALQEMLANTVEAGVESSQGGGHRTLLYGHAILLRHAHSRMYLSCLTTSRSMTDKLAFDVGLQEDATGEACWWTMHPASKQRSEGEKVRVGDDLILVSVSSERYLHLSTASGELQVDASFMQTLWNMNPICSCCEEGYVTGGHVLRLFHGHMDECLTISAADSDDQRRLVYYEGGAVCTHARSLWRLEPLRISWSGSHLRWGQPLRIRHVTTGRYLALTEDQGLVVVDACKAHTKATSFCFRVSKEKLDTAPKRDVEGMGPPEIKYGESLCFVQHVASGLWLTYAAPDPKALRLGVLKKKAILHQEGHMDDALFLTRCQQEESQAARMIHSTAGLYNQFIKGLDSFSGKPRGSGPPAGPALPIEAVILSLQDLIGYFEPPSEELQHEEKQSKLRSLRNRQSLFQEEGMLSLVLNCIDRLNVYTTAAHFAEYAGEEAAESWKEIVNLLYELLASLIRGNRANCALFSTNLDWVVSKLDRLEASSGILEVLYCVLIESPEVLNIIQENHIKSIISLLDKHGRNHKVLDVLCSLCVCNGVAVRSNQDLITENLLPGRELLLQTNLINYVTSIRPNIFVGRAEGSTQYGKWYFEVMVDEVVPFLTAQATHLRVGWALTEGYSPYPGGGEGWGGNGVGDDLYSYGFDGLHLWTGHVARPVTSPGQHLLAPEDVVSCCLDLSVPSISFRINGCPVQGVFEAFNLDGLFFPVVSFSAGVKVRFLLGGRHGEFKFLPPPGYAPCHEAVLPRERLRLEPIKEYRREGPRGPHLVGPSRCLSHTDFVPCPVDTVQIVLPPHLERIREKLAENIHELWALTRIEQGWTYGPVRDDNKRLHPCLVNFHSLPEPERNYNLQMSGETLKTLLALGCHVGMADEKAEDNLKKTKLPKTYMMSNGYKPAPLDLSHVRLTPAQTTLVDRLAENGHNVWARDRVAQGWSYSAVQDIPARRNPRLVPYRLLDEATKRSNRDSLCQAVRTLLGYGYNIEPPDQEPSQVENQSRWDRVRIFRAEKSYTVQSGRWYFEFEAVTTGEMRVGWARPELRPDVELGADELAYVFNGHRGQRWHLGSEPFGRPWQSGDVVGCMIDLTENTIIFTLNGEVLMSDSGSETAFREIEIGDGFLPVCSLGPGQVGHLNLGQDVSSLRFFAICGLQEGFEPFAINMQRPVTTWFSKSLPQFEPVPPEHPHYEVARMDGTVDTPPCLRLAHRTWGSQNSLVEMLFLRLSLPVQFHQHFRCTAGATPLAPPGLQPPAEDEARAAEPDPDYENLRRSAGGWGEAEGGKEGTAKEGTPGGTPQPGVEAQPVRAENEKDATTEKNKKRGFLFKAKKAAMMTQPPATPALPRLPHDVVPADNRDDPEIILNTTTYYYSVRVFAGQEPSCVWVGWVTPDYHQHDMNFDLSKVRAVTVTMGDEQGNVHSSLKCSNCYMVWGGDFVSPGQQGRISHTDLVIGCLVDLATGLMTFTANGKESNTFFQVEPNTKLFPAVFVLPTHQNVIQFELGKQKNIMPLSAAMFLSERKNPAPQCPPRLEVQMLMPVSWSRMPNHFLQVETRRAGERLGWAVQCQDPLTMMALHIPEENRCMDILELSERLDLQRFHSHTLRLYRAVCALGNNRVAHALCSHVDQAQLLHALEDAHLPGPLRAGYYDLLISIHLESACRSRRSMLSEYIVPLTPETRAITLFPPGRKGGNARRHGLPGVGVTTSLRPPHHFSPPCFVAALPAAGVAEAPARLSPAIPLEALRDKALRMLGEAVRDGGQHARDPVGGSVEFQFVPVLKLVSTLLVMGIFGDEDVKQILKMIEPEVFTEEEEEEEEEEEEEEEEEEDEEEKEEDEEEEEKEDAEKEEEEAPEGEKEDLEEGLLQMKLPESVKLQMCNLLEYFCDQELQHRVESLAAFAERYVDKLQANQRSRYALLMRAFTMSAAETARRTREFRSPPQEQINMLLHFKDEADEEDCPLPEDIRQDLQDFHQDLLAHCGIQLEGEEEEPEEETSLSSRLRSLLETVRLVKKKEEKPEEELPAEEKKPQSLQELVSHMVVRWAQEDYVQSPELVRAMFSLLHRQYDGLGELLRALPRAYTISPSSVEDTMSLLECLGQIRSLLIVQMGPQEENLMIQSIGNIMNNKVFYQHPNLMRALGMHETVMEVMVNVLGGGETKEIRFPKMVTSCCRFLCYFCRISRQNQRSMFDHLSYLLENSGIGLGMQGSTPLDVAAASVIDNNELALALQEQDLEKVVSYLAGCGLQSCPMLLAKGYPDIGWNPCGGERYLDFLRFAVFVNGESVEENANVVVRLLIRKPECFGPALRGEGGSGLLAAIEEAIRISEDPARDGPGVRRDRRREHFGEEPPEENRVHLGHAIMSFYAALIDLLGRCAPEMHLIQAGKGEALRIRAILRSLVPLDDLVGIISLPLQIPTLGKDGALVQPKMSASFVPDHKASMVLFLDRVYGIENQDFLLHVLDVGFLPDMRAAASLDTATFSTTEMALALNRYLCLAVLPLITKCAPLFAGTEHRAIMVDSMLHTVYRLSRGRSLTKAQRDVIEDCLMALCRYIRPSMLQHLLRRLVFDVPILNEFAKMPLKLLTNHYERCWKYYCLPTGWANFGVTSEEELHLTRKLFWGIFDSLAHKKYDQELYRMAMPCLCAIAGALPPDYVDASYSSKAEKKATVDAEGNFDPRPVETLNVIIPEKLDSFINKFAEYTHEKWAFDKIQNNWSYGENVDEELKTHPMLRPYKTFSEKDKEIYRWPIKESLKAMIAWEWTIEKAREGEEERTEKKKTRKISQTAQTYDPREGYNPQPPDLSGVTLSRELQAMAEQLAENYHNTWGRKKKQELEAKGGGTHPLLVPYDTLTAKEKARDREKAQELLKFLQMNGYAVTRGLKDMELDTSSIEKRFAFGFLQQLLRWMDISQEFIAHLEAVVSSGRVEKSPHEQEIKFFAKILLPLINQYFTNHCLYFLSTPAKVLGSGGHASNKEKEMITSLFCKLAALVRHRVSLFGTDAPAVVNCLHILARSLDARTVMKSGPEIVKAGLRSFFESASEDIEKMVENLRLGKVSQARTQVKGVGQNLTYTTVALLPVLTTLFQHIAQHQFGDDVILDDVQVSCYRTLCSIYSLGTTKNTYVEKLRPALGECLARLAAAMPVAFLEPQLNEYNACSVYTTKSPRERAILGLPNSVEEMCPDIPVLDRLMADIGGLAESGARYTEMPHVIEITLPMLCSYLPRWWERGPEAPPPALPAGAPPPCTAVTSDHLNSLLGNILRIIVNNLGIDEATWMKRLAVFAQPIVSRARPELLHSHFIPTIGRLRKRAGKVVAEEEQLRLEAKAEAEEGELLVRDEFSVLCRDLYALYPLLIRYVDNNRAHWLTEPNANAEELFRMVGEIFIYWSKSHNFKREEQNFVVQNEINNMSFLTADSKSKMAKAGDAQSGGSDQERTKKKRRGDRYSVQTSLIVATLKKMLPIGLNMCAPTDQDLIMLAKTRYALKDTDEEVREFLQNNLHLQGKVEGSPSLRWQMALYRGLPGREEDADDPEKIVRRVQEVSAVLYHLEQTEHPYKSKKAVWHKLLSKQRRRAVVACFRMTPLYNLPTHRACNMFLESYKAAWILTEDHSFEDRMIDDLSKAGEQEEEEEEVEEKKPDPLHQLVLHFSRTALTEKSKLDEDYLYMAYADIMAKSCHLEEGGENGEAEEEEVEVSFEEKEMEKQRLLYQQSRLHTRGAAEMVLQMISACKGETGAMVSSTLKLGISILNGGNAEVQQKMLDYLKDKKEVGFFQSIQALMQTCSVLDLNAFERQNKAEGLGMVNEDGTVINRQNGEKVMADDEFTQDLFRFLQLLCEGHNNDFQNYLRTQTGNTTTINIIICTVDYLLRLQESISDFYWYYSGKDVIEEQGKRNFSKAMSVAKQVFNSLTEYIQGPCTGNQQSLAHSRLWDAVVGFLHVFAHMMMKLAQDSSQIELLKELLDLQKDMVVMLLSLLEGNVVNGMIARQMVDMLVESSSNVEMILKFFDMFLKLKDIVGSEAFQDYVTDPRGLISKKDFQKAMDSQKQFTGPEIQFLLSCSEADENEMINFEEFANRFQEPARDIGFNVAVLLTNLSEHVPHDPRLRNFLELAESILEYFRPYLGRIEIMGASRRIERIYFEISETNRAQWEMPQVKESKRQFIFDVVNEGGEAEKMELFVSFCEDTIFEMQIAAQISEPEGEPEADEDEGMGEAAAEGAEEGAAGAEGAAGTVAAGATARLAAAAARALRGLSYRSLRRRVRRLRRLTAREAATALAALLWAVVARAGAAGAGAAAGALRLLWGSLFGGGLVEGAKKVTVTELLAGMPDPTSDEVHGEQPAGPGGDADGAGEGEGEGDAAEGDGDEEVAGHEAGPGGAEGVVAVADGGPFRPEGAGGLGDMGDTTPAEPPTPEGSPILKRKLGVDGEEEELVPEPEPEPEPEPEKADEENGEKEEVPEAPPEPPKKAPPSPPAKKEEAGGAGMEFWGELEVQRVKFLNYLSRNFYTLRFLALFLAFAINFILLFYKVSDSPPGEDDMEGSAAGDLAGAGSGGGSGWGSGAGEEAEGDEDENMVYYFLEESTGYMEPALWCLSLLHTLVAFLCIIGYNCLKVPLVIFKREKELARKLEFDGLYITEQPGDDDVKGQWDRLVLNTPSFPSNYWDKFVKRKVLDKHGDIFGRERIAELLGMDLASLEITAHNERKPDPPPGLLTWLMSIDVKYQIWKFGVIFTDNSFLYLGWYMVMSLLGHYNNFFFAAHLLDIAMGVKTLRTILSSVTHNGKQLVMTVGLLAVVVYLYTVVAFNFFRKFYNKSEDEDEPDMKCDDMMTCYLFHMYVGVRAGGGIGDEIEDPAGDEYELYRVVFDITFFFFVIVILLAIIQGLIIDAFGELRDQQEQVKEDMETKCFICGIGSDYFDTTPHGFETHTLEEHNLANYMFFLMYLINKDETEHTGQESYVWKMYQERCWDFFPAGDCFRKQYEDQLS

In the case of `O=C1N/C=C/c2ccc(c(Br)c2)Oc2cc(cc(Br)c2OS(=O)(=O)O)CCNC(=O)/C(=N/O)Cc2ccc(c(Br)c2)Oc2cc(cc(Br)c2OS(=O)(=O)O)C/C1=N\O`, the 50% effective concentration (EC50) is 13.6 µM.

`O=C1NCCc2ccc(c(Br)c2)Oc2cc(cc(Br)c2O)CCNC(=O)/C(=N/O)Cc2cc(Br)c(O)c(c2)Oc2c(Br)cc(cc2Br)C/C1=N\O` [BASTADIN 19] yielded a concentration giving a half-maximal response (EC50) greater than 100 µM.

The EC50 is the midpoint of the concentration-response curve. A lower EC50 goes with an effect from little substance.
